Experiment: Human HepG2 cell viability assay in 384 well format
Type: toxicity, cell-based
Set-up: dose 125 nL, time 70.5 hour; cytotoxicity at 70.5 h: concentration not given beside the values
Details: HepG2 cells, read-out: Inhibition

| SMILES | cytotoxicity at 70.5 h [%] |
| --- | --- |
| Cc1noc(CN(C)CC2CCN(CCO)CC2)n1 | 5 |
| O=C(NCc1ccccc1CN1CCOCC1)c1ccc(Br)cc1F | 2.01 |
| COc1ccc(C(CNC(=O)c2cnc(C)cn2)N2CCOCC2)cc1 (stereo unspecified) | -3.63 |
| CN1CCN(Cc2ccccc2CNC(=O)c2ccc(Cl)cc2F)CC1 | 3.69 |
| CN1CCN(Cc2ccccc2CNC(=O)c2cc(Br)ccc2F)CC1 | 10.8 |
| Cc1ccccc1N1CCN(C(=O)c2cccnc2-n2cncn2)CC1 | -6.93 |
| CC(C(=O)NCc1ccnc(OC2CCCC2)c1)n1cncn1 (stereo unspecified) | -3.9 |
| N#Cc1cccnc1NCCNC(=O)N1CCSCC1 | 9.49 |
| N#Cc1cccnc1NCCNC(=O)N1CCCC(N2CCCC2)C1 (stereo unspecified) | 10.7 |
| COc1ccccc1C1(CNc2nnc(C)c(C)c2C#N)CCOCC1 | -5.67 |
| CCN(CC)C(=O)CSc1ccc(C(F)(F)F)cn1 | -6.72 |
| O=C(Cc1cccc(F)c1)NCCNCC1CNc2ccnn2C1 (stereo unspecified) | 15.5 |
| CC(C)C(=O)NCc1ccnc(Oc2ccc(F)cc2)c1 | -5.04 |
| CCN1CCN(C(=O)c2ccnc(N(C)C)c2)CC1 | 3.26 |
| CC(NC(N)=O)C(=O)NCc1ccnc(Oc2ccc(F)cc2)c1 (stereo unspecified) | -0.577 |
| CC(C)(C)c1noc(OCC(=O)NCC(F)(F)F)n1 | -0.303 |
| CC(C)(C)c1noc(OCC(=O)NC2CCCC2)n1 | 0.264 |
| CN(C)c1cccc(C(=O)NCC2(O)CCOCC2)c1 | -0.873 |
| Cc1nnc(NCC2(c3ccccc3)CCC2)c(C#N)c1C | 2.86 |
| CCc1nnc(CN2CCN(C(C)=O)CC2)o1 | -1.65 |
| COCC(=O)N1CCN(Cc2nnc(C(C)(C)C)o2)CC1 | -1.83 |
| CCC(C)C(=O)NCc1cccc(OCCN(C)C2CCOCC2)c1 (stereo unspecified) | 16.4 |
| O=C(c1cccnc1-n1cncn1)N1CCC(Nc2ccccc2)CC1 | -0.978 |
| Cc1cnn(CC2CCCCN2CC(=O)N(C)Cc2ccc(C)o2)c1 (stereo unspecified) | -2.13 |
| Cc1ccc(CN(C)C(=O)CN2CCCC2c2cnn(C)c2)o1 (stereo unspecified) | 16.6 |

| SMILES | cytotoxicity at 70.5 h [%] |
| --- | --- |
| Cc1cnn(CC2CCCN2CC(=O)N(C)Cc2ccsc2)c1 (stereo unspecified) | -2.74 |
| C=C(C)CNC1CCCN(Cc2noc(C3CC3)n2)C1 (stereo unspecified) | -5.26 |
| C1CCC(CNC2CCCN(Cc3noc(C4CC4)n3)C2)C1 (stereo unspecified) | -10.4 |
| CCC(NCc1ncc[nH]1)c1nc(C(F)(F)F)cs1 (stereo unspecified) | -4.3 |
| O=C(NC1(c2nccs2)CCCC1)c1cc(C2CC2)on1 | -3.31 |
| N#Cc1cc(Br)ccc1NC1CCN(CC(N)=O)CC1 | -2.02 |
| N#Cc1c(N2CCN(CC3CCOC3)CC2)nc2ccccn12 (stereo unspecified) | -1.45 |
| CC(C)N1CCC(Nc2ccn(Cc3ccccn3)n2)C1=O (stereo unspecified) | 1.71 |
| COc1ccccc1C(=O)N1CCC(O)(c2cccc(C)c2C)CC1 | 11.7 |
| Cc1cnn(CC2CCCN2C(=O)c2sccc2C#N)c1 (stereo unspecified) | -2.76 |
| O=c1oc(-c2ccc(F)cc2)nn1CCc1ccncc1 | -9.83 |
| O=c1oc(-c2ccc(F)cc2)nn1CCS(=O)(=O)c1ccccc1 | -9.58 |
| CC(=O)Nc1nc(C(=O)NCCOc2ccccc2)cs1 | -6.89 |
| CC(=O)Nc1nc(C(=O)NCCOc2ccc(C)cc2)cs1 | 13.3 |
| CCOCc1ccccc1CNc1ccc2nncn2n1 | -5.87 |
| Cn1ccnc1COc1ccc(CSc2nnnn2C2CC2)cc1 | 6.53 |
| NC(=O)Cn1ccc(NC(=O)C2(c3ccc(F)cc3)CC2)n1 | -11.2 |
| Cc1ccc(CN(C)C(=O)CN2CCCC2c2cnn(C)c2)cc1 (stereo unspecified) | -6.75 |
| O=C(CNc1ccc(F)cc1OCC(F)(F)F)NCc1ccco1 | -10.6 |
| CCOc1cc(C(=O)N(C)C)ccc1NC(=O)c1ccsc1 | -9.1 |
| Cc1cc(CNC(=O)Cc2cccs2)ccc1S(C)(=O)=O | 4.24 |
| Cc1cccc(OC2CCN(c3nccnc3C#N)CC2)n1 | 4.46 |
| Cc1cccc(OC2CCN(c3ccc(C#N)cn3)CC2)n1 | -1.77 |
| O=C(N1CCOCC1)N1CCN(c2ccnc3ccsc23)CC1 | 39.2 |
| CC1CCN(S(=O)(=O)N2CCn3cccc3C2C)CC1 (stereo unspecified) | -4.61 |

| SMILES | cytotoxicity at 70.5 h [%] |
| --- | --- |
| COCCn1cc(NCc2c[nH]nc2C(C)(C)C)cn1 | -4.3 |
| COCCn1cc(NCc2c[nH]nc2-c2ccc(OC)cc2)cn1 | -5.02 |
| CN(c1ncnc2c1cnn2C)C1CCCN(c2cccnn2)C1 (stereo unspecified) | 0.765 |
| CN(c1ncnc2ccccc12)C1CCCN(c2cccnn2)C1 (stereo unspecified) | -12.6 |
| C=C(C)CN(CC)Cc1nc(C)no1 | -6.47 |
| CCC(CC)C(CNC(=O)Nc1ccc(OC)cc1)N1CCOCC1 (stereo unspecified) | -12.2 |
| CCn1c(C)cc(C(=O)NCc2cccc(NS(C)(=O)=O)c2)c1C | 16.2 |
| Cc1noc(C)c1CN(Cc1ccccc1)C(C)CN1CCOCC1 (stereo unspecified) | -9.44 |
| O=S(=O)(C/C=C/c1ccccc1)Cc1nc(C2CC2)no1 | -11.4 |
| CCC(CC)C(CNC(=O)Nc1cnn(CCOC)c1)N(C)C (stereo unspecified) | -8.7 |
| CC(CN1CCOCC1)N(Cc1ccccc1)Cc1ccncc1 (stereo unspecified) | -6.88 |
| Cc1cc(C(=O)Nc2ccc(OC3CCOCC3)c(C)c2)[nH]n1 | -17.3 |
| Cc1ccc(C(NC(=O)Cn2cc(C3CC3)nn2)C2CC2)cc1 (stereo unspecified) | -7.56 |
| O=C(NCc1ncc[nH]1)c1c(F)cccc1I | 11.2 |
| Cc1ccccc1C(NC(=O)Cn1cc(C2CC2)nn1)C1CC1 (stereo unspecified) | -3.63 |
| Cc1c(I)cccc1C(=O)NCc1nnc[nH]1 | -8.8 |
| CNC(=O)c1cccc(CNC(C)c2ccc(F)cc2N(C)C)c1 (stereo unspecified) | -7.51 |
| Cc1n[nH]c(C)c1C1CCCN1C(=O)c1cc(Br)c[nH]1 (stereo unspecified) | 12.3 |
| CCN(C(=O)c1cccc2c1OCO2)c1ccc(Br)cn1 | -7.06 |
| NC(=O)c1cccc(CCNC(=O)N2Cc3ccccc3C2)c1 | -2.71 |
| Cc1oc(CN(C)C(=O)c2ccc(Br)cc2)cc1C(=O)O | -8.74 |
| CNC(=O)c1cccc(CNC(C)c2cc(C)ccc2OC(F)F)c1 (stereo unspecified) | -7.54 |
| Cc1noc(C)c1CN(Cc1ccccc1)C(C)C | 12.4 |
| Cc1n[nH]c(C)c1C1CCCN1C(=O)c1coc(Br)c1 (stereo unspecified) | -5.01 |
| CN(Cc1cccs1)C(=O)CNC1CCc2ncnn2C1 (stereo unspecified) | -5.9 |

| SMILES | cytotoxicity at 70.5 h [%] |
| --- | --- |
| C=C(C)CN(CC)Cc1nc(C(C)(C)C)no1 | 10.8 |
| CC(C)N(CCNC(=O)c1ccc(S(=O)(=O)NC2CC2)cc1)C(C)C | 25.6 |
| COc1ccc(NC(C)=O)cc1OCc1cccnc1 | 29.5 |
| COc1ccc(NC(=O)C(C)(C)C)cc1OCc1cccnc1 | 3.3 |
| CCC(CNC(=O)Cc1c(C)noc1C)N1CCCC1 (stereo unspecified) | -6.77 |
| Cc1noc(C)c1CC(=O)NCC(CC(C)C)N1CCOCC1 (stereo unspecified) | -4.86 |
| Cc1noc(C)c1CC(=O)NCC(C)N1CCOCC1 (stereo unspecified) | -2.99 |
| O=C(Nc1c(F)cccc1Oc1ccccc1)C1CCS(=O)(=O)C1 (stereo unspecified) | -1.02 |
| CCNC(=O)NC(=O)CN1CCOC(c2ccccc2Cl)C1 (stereo unspecified) | -9.68 |
| CC(O)CCN(C)c1nc2ccccc2c(=O)[nH]1 (stereo unspecified) | -6.49 |
| COCCC1(CNC(=O)NCC2CCC2)CCC1 | -0.0221 |
| Cc1csc(CN2CC(CO)Oc3ccccc32)n1 (stereo unspecified) | 7.51 |
| CN(CCC(F)(F)F)c1nc2ccccc2c(=O)[nH]1 | 0.426 |
| Cc1cc(-n2cncn2)ccc1C(=O)Nc1ccc(N2CCCC2)cn1 | -1.24 |
| CC(C)Cn1cc(NC(=O)N2CCOC(c3ccccc3)C2)cn1 (stereo unspecified) | -4.35 |
| CC(C)(C)C(=O)N1CCN(C(=O)Nc2cnn(CC(F)F)c2)CC1 | -7.22 |
| COCCC1(CNC(=O)NCC2CCCN(C)C2)CCC1 (stereo unspecified) | -12 |
| O=C(CCN1CCCCCC1c1ccco1)N1CCOCC1 (stereo unspecified) | -9.92 |
| CC(C)c1nc(C2CCCN2CCN2CCCCC2)no1 (stereo unspecified) | -5.16 |
| CC(C)N(Cc1ccccn1)C(=O)CN(C)C(=O)c1cccs1 | -22.7 |
| CC1C(=O)NCCN1CCOc1ccc(C#N)cc1 (stereo unspecified) | -21.1 |
| CC(C)(C)c1n[nH]cc1CNC1CCC(O)CC1 (stereo unspecified) | -19.6 |
| Cc1nc(NC(=O)NCCCN2CCC(C(N)=O)CC2)sc1C | -19.5 |
| CCC(Nc1ccc(CCN2CCOCC2)cc1)C(N)=O (stereo unspecified) | -19.6 |
| Cc1cc(F)ccc1N1CCCC(NC(=O)CCc2ccncc2)C1 (stereo unspecified) | -23.5 |

| SMILES | cytotoxicity at 70.5 h [%] |
| --- | --- |
| CCOC(=O)C(C)Nc1ccc(CCN2CCOCC2)cc1 (stereo unspecified) | -16.3 |
| O=C(CNc1ccc(OC2CCOC2)cc1)NCc1ccco1 (stereo unspecified) | -21.4 |
| Cc1c(C(=O)NCCCS(C)(=O)=O)cccc1-c1ccccn1 | 7.88 |
| Cc1cnn(CCCNC(=O)NCCC(=O)Nc2ccccc2)c1 | -11.8 |
| CCc1cc(N2CCC(NCc3ccc(C)o3)CC2)ncn1 | 9.42 |
| CCN(Cc1nc(Cc2ccccc2)no1)C1CC1 | -4.11 |
| Cc1ccc2nc(CN3CCCCC3C(=O)N3CCOCC3)cn2c1 (stereo unspecified) | 7.36 |
| CC(C)c1nc(C2CCCN2CCOCC2CC2)no1 (stereo unspecified) | -15.5 |
| CC(C)c1nc(C2CCCN2CCc2ccccn2)no1 (stereo unspecified) | -15.3 |
| O=C(CNc1ccc(OC2CCOC2)cc1)NCc1cccs1 (stereo unspecified) | -18.3 |
| Cc1c(C(=O)NCCC(=O)N2CCCC2)cccc1-c1ccccn1 | -17.7 |
| Cc1cc(CC(=O)NC2CCCN(c3ccccc3F)C2=O)n[nH]1 (stereo unspecified) | 2.16 |
| O=C(CCCn1ccnc1)NC1CCCN(c2ccccc2Cl)C1 (stereo unspecified) | -18 |
| Cc1csc(N2CCN(CCCN3CCCC3=O)CC2)n1 | -0.2 |
| Cc1ccc(S(=O)(=O)NC(=O)c2cc(S(C)(=O)=O)ccc2C)s1 | -0.802 |
| O=C(NCCCn1cccn1)c1csc2c1CCCC2 | -11.3 |
| CC(C)Oc1nnc(SCC(=O)NCC(=O)N2CCCC2)s1 | -10.4 |
| Cc1cc(NCC2CCN(c3ccccc3)C2)n2ncnc2n1 (stereo unspecified) | -1.33 |
| Cc1cc(C)c(CNC(=O)N(C)Cc2nnc3n2CCC3)c(=O)[nH]1 | -10.3 |
| Cc1ccc(Oc2cc(CN)ccn2)cc1C | -22.3 |
| CC(C)(C)c1n[nH]cc1CNC1CCC(C(F)(F)F)CC1 (stereo unspecified) | -0.127 |
